Experimental data from patent US11850252B2, “Use of nor-ursodeoxycholic acid for reducing liver fat” (Dr. Falk Pharma GmbH, priority 2017, dated 2023).

Columns and labels:
[1] = test system: Patients with a clinical diagnosis of non-alcoholic hepatic steatosis; test: Liver stiffness according to Fibroscan or ARFI, phase II clinical trial; format: in vivo, human
Method: (§1) A double-blinded, randomized, placebo-controlled phase II clinical trial was conducted as described in the following.
(§2) Patients with a clinical diagnosis of non-alcoholic hepatic steatosis were randomized to a 12-week treatment period and a 4-week follow-up. Patients were divided into three groups. The first groups received 1,500 mg Nor-UDCA per day (6 capsules with 250 mg Nor-UDCA in each capsule). The second group received 500 mg Nor-UDCA per day (2 capsules with 250 mg Nor-UDCA in each capsule and 4 capsules with 250 mg placebo in each capsule). The third group received 6 capsules with 250 mg placebo in each capsule.
A) If available, Fibroscan examinations were performed at V1 or within 4 weeks before and 1 week after V1 and at V6. For the purpose of this measurement, patients should be fasting.
Fibroscan is a non-invasive device (Echosens, France) for the detection steatosis hepatis by vibration-controlled transient elastography. It consists of a vibrator device coupled to an ultrasound system. The signal from this device allows a calculation of stiffness of scanned tissue, and thereby an assessment of the extent of disease. Results of liver elasticity are to be expressed by stiffness (kPa) and success rate (%).
During measurement, an ultrafast pulse echosequence is emitted (pulse repetition frequency of 6 kHz) during the propagation of the controlled shear wave. The acquisition lasts only 80 ms and strains induced in the liver by the propagation of the shear wave is measured using standard autocorrelation approach between successive ultrasound lines. Stiffness values were obtained in kPA.
Liver stiffness was measured using either of two probes (M-probe or XL-probe) and documented with the following respective thresholds for different stages:
Stage 0/1 (i.e. <stage 2): <7.0 kPa (threshold)
Stage 0/1 (i.e. <stage 2): <6.2 kPa (threshold)
B) If available, Acoustic radiation force impulse imaging (ARFI) examinations were performed at V1 or within 4 weeks before and 1 week after V1 and at V6. ARFI measurements were documented with the following thresholds for different stages:
Stage 0/1 (i.e. <stage 2): <1.34 m/s (threshold)

[2] = test system: Patients with a clinical diagnosis of non-alcoholic hepatic steatosis; test: Cytokeratin 18 (M30, M65 fragments) in the course of the study; format: in vivo, human; settings: for mean value of Cytokeratin 18 (M30 fragment) / mean value of Cytokeratin 18 (M65 fragment): V2 baseline
Text: In another embodiment, the patient to be treated has a serum level of cytokeratin 18 (M65) of less than 750 U/ml, or less than 600 U/ml, or less than 500 U/ml, or less than 400 U/ml, or less than 300 U/ml or even less than 250 U/ml. The level of the M65 fragment of cytokeratin-18 can be determined by known methods, e.g. by an enzyme-linked immunosorbent assay (ELISA)
In another embodiment, the patient to be treated has a serum level of cytokeratin 18 (M30) of less than 500 U/ml, or less than 400 U/ml, or less than 300 U/ml, or less than 200 U/ml, or less than 150 U/ml. The level of the M30 fragment of cytokeratin-18 can be determined by known methods, e.g. by an ELISA.
as §1, §2

[3] = N500 (500 mg Nor-UDCA per day), V1 screening
[4] = N500 (500 mg Nor-UDCA per day), V6-LOCF week 12
[5] = N1500 (1,500 mg Nor-UDCA per day), V1 screening
[6] = N1500 (1,500 mg Nor-UDCA per day), V6-LOCF week 12

CC(CC(=O)O)[C@H]1CCC2[C@H]3C(CC[C@@]21C)[C@@]1(C)CCC(O)C[C@H]1C[C@@H]3O (stereo partly shown) [Nor-UDCA, 24-nor-ursodeoxycholic acid]
Number (%) of patients, liver stiffness Stage 0/1 [1, 3]: 62.5% | Number (%) of patients, liver stiffness Stage = 4 [1, 3]: 12.5% | Number (%) of patients, liver stiffness Stage ≥2 [1, 3]: 14.6% | Number (%) of patients, liver stiffness Stage ≥3 [1, 3]: 10.4% | Number (%) of patients, liver stiffness Stage 0/1 [1, 4]: 58.3% | Number (%) of patients, liver stiffness Stage = 4 [1, 4]: 10.4% | Number (%) of patients, liver stiffness Stage ≥2 [1, 4]: 22.9% | Number (%) of patients, liver stiffness Stage ≥3 [1, 4]: 8.3% | Number (%) of patients, liver stiffness Stage 0/1 [1, 5]: 55.6% | Number (%) of patients, liver stiffness Stage = 4 [1, 5]: 19.4% | Number (%) of patients, liver stiffness Stage ≥2 [1, 5]: 17.6% | Number (%) of patients, liver stiffness Stage ≥3 [1, 5]: 8.3% | Number (%) of patients, liver stiffness Stage 0/1 [1, 6]: 67.5% | Number (%) of patients, liver stiffness Stage = 4 [1, 6]: 15.0% | Number (%) of patients, liver stiffness Stage ≥2 [1, 6]: 12.5% | Number (%) of patients, liver stiffness Stage ≥3 [1, 6]: 5.0% | percentage of patients with stage 0/1 liver stiffness, change in the course of the study ([1]; group receiving 500 mg Nor-UDCA): decreased | change of mean Cytokeratin 18 (M30 fragment) during the study ([2]; N500 (500 mg/day)): −34.4 U/I | change of mean Cytokeratin 18 (M65 fragment) during the study ([2]; N500 (500 mg/day)): −106.0 U/I | mean value of Cytokeratin 18 (M30 fragment) ([2]; N500 (500 mg/day)): 389.4 U/I | mean value of Cytokeratin 18 (M65 fragment) ([2]; N500 (500 mg/day)): 590.2 U/I | change of mean Cytokeratin 18 (M30 fragment) during the study ([2]; N1500 (1,500 mg/day)): −30.3 U/I | change of mean Cytokeratin 18 (M65 fragment) during the study ([2]; N1500 (1,500 mg/day)): −80.6 U/I | mean value of Cytokeratin 18 (M30 fragment) ([2]; N1500 (1,500 mg/day)): 333.7 U/I | mean value of Cytokeratin 18 (M65 fragment) ([2]; N1500 (1,500 mg/day)): 519.9 U/I
